Read-outs that look alike come from different tables or passages of the source. One block for each compound: values may come before it.
Legend:
[1] = previously published amine, comparison in Example I; cited from earlier work
[2] = Absorbance and fluorescence measurements (excitation maximum, emission maximum, quantum yield vs coumarin 151); assay type: physicochemical; parameters: key to Quantum Yield: fraction relative to coumarin 151 in ethanol standard; conditions: measurements run with methanol; for λex: absorbance/excitation maximum; for Quantum Yield: coumarin 151 in ethanol as standard; for Quantum Yield / λem: 2.5 mm slit width; for λem: emission maximum
Text: All reagents and solvents were acquired from commercially available suppliers and used without further purification. Methanol(dried on molecular sieves-Acroseal) was obtained from Acros. […] 1H and 13C NMR spectra were obtained on a Bruker NMR spectrometer at 500/400 and 125/100 MHz respectively. The data is reported as follows: chemical shift in ppm (δ), multiplicity (s=singlet, d=doublet, dd=doublet of doublets, t=triplet, dt=doublet of triplets, td=triplet of doublets, q=quartet, p=pentet, m=multiplet). Coupling constants are reported in Hertz (Hz) and were automatically generated using known NMR analyzer software (MestReNova), these were then subsequently curated. High-resolution mass spectra were obtained using the positive ESI method for all the compounds, obtained in an Ion Cyclotron Resonance (ICR) spectrometer. Absorbance spectra were obtained using an Agilent 8453 UV-visible spectroscopy system. Fluorescence was measured on a Varian (Agilent) Cary Eclipse Fluorimeter. Quantum yield measurements were calculated and reported using coumarin 151 in ethanol as a standard.^1 Fluorescence scans were obtained using a 2.5 mm slit width unless otherwise noted.
The fluorescence was also measured in different solvents to examine the solvent effects.

Compound: COc1cccc(-c2nc3c(nc4ccccn43)c3cc(OC)ccc23)c1 [Compound 16a, 2-methoxy-5-(3-methoxyphenyl)pyrido[2′,1′:2,3]imidazo[4,5-c]isoquinoline]
Quantum Yield [1]: 0.02
emission maxima [1]: 505 nm
excitation maxima [1]: 292 nm
λex [2]: 361 nm
Quantum Yield [2]: 0.05
λem [2]: 417 nm

Compound: COc1ccc(/C=C/c2nc3nc(-c4ccc(OC)cc4)c(/N=C/c4ccc(OC)cc4)n3nc2C)cc1 [Compound 60, (E)-1-(4-methoxyphenyl)-N-(6-(4-methoxyphenyl)-3-((E)-4-methoxystyryl)-2-methylimidazo[1,2-b][1,2,4]triazin-7-yl)methanimine]
λex [2]: 563 nm
Quantum Yield [2]: 0.19
λem [2]: 609 nm

Compound: COc1cc(/C=C/c2nc3nc(-c4cc(OC)cc(OC)c4)c(/N=C/c4cc(OC)cc(OC)c4)n3nc2C)cc(OC)c1 [Compound 62, (E)-1-(3,5-dimethoxyphenyl)-N-(6-(3,5-dimethoxyphenyl)-3-((E)-3,5-dimethoxystyryl)-2-methylimidazo[1,2-b][1,2,4]triazin-7-yl)methanimine]
λex [2]: 506 nm
Quantum Yield [2]: 0.10
λem [2]: 589 nm

Compound: COc1cc(/C=C/c2nc3nc(-c4cc(OC)c(OC)c(OC)c4)c(/N=C/c4cc(OC)c(OC)c(OC)c4)n3nc2C)cc(OC)c1OC [Compound 64, (E)-N-(2-methyl-6-(3,4,5-trimethoxyphenyl)-3-((E)-3,4,5-trimethoxystyryl)imidazo[1,2-b][1,2,4]triazin-7-yl)-1-(3,4,5-trimethoxyphenyl)methanimine]
λex [2]: 533 nm
Quantum Yield [2]: 0.10
λem [2]: 611 nm

Compound: COc1ccc(/C=C/c2nc3nc(-c4ccc(OC)cc4)c(NCc4ccccc4)n3nc2C)cc1 [Compound 76, (E)-N-benzyl-6-(4-methoxyphenyl)-3-(4-methoxystyryl)-2-methylimidazo[1,2-b][1,2,4]triazin-7-amine]
λex [2]: 499 nm
Quantum Yield [2]: 0.24
λem [2]: 639 nm

Compound: (E)-2,3,4-trimethoxy-9-methyl-5-(3,4,5-trimethoxyphenyl)-10-(3,4,5-trimethoxystyryl)-[1,2,4]triazino[3′, 2′: 2,3]imidazo[4,5-c]isoquinolines [Compound 80]
λex [2]: 499 nm
Quantum Yield [2]: 0.25
λem [2]: 604 nm

Compound: (E)-5-(3,5-dimethoxyphenyl)-10-(3,5-dimethoxystyryl)-2,4-dimethoxy-9-methyl-[1,2,4]triazino[3′, 2′: 2,3]imidazo[4,5-c]isoquinolines [Compound 79]
λex [2]: 498 nm
Quantum Yield [2]: 0.18
λem [2]: 608 nm

Other lines, results leading:

λex [2]: 510 nm
Quantum Yield [2]: 0.04
λem [2]: 601 nm
Compound: Cc1nn2c(/N=C/c3ccccc3)c(-c3ccccc3)nc2nc1/C=C/c1ccccc1 [Compound 58, (E)-N-(2-methyl-6-phenyl-3-((E)-styryl)imidazo[1,2-b][1,2,4]triazin-7-yl)-1-phenylmethanimine]

λex [2]: 526 nm
Quantum Yield [2]: 0.04
λem [2]: 601 nm
Compound: Cc1nn2c(/N=C/c3ccc4ccccc4c3)c(-c3ccc4ccccc4c3)nc2nc1/C=C/c1ccc2ccccc2c1 [Compound 59, (E)-N-(2-methyl-6-(naphthalen-2-yl)-3-((E)-2-(naphthalen-2-yl)vinyl)imidazo[1,2-b][1,2,4]triazin-7-yl)-1-(naphthalen-2-yl)methanimine]

λex [2]: 572 nm
Quantum Yield [2]: 0.19
λem [2]: 615 nm
Compound: Cc1nn2c(/N=C/c3cccs3)c(-c3cccs3)nc2nc1/C=C/c1cccs1 [Compound 63, (E)-N-(2-methyl-6-(thiophen-2-yl)-3-((E)-2-(thiophen-2-yl)vinyl)imidazo[1,2-b][1,2,4]triazin-7-yl)-1-(thiophen-2-yl)methanimine]

λex [2]: 498 nm
Quantum Yield [2]: 0.24
λem [2]: 636 nm
Compound: Cc1nn2c(NCc3ccccc3)c(-c3ccccc3)nc2nc1/C=C/c1ccccc1 [Compound 74, (E)-N-benzyl-2-methyl-6-phenyl-3-styrylimidazo[1,2-b][1,2,4]triazin-7-amine]

λex [2]: 529 nm
Quantum Yield [2]: 0.34
λem [2]: 646 nm
Compound: Cc1nn2c(NCc3ccccc3)c(-c3ccc4ccccc4c3)nc2nc1/C=C/c1ccc2ccccc2c1 [Compound 75, (E)-N-benzyl-2-methyl-6-(naphthalen-2-yl)-3-(2-(naphthalen-2-yl)vinyl)imidazo[1,2-b][1,2,4]triazin-7-amine]

λex [2]: 343 nm
Quantum Yield [2]: 0.28
λem [2]: 474 nm
Compound: Cc1cc(C)cc(-c2nc3ccccn3c2N)c1 [Compound 101, 2-(3,5-dimethylphenyl)imidazo[1,2-a]pyridin-3-amine]

λex [2]: 407 nm
Quantum Yield [2]: 0.02
λem [2]: 546 nm
Compound: COc1cc(OC)cc(-c2nc3cccnn3c2N)c1 [Compound lot, 2-(3,5-dimethoxyphenyl)imidazo[1,2-b]pyridazin-3-amine]
